Data as given in ChEMBL document CHEMBL2029344, “A new class of prolylcarboxypeptidase inhibitors, part 2: the aminocyclopentanes” (Bioorg Med Chem Lett, 2012).
pIC50, pKi: −log10 of the molar value.

How the values were obtained:
Mus musculus [1] = experiment: Ex-vivo inhibition of po dosed mouse PrCP by FRET analysis in presence of heat inactivated 25% plasma; type: functional, organism-based
[2] = Stability in human liver microsomes after 30 mins by LC/MS analysis; type: ADME, Microsome; conditions: read-out: Stability
[3] = Percentage unbound in 10% human plasma; type: ADME, cell-free
Mus musculus [4] = experiment: Ex-vivo inhibition of po dosed mouse PrCP by FRET analysis in presence of heat inactivated 100% plasma; type: functional, organism-based
[5] = Stability in mouse liver microsomes after 30 mins by LC/MS analysis; type: ADME, Microsome; conditions: read-out: Stability
[6] = biological target: T1, Lysosomal Pro-X carboxypeptidase (Mus musculus, UniProt Q7TMR0); experiment: Inhibition of mouse PrCP
T1 sequence (Q7TMR0 whole entry): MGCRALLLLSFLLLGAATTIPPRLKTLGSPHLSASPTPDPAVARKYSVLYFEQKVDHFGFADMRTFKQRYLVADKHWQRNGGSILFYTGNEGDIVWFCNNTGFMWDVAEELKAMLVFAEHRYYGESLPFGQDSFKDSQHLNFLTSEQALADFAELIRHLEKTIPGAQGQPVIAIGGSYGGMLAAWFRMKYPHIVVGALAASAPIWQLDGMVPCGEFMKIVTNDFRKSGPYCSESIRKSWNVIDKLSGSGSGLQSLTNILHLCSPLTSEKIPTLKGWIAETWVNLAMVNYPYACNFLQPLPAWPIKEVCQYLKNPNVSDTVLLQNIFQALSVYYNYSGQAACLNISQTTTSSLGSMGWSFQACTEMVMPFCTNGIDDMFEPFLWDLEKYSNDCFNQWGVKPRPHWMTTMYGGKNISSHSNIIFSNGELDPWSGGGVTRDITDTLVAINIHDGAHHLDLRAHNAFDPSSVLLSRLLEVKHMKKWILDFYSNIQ

[7] = Percentage unbound in 10% mouse plasma; type: ADME, cell-free
Mus musculus [8] = experiment: Ex-vivo inhibition of po dosed mouse PrCP by FRET analysis in absence of plasma; type: functional, organism-based
Mus musculus [9] = experiment: Ex-vivo inhibition of PrCP in heat inactivated 100% plasma of C57 mouse assessed as target engagement at 10 mg/kg, po after 20 hrs by FRET analysis; type: functional; design: scale not given: the % may be the effect or the level left
[10] = Drug uptake in C57 mouse plasma at 10 mg/kg, po after 20 hrs by LC/MS analysis; type: ADME, organism-based; design: dose 10 mg/kg, route oral
[11] = Apparent permeability across pig LLC-PK1 cells at 1 uM; type: ADME, cell-based, Sus scrofa
Mus musculus [12] = experiment: Toxicity in po dosed C57 mouse; type: organism-based; conditions: in vivo
[13] = Drug uptake in C57 mouse brain at 10 mg/kg, po after 20 hrs by LC/MS analysis; type: ADME, organism-based; design: dose 10 mg/kg, route oral; conditions: read-out: Drug uptake
[14] = Ratio of drug uptake in brain to plasma of C57 mouse at 10 mg/kg, po after 20 hrs by LC/MS analysis; type: ADME, organism-based; design: dose 10 mg/kg, route oral; conditions: read-out: BPR
Mus musculus [15] = experiment: Ex-vivo inhibition of PrCP in heat inactivated 100% plasma of po dosed C57 mouse assessed as target engagement after 20 hrs by FRET analysis; type: functional; design: scale not given: the % may be the effect or the level left
Mus musculus [16] = experiment: Ex-vivo inhibition of PrCP in heat inactivated 100% plasma of C57 mouse assessed as target engagement calculated as [cmpd]plasma/([cmpd]plasma + Ki (heat inactivated plasma))x100 at 10 mg/kg, po after 20 hrs by FRET analysis; type: functional; design: scale not given: the % may be the effect or the level left
[17] = Volume of distribution in mouse at 1 mg/kg, iv and 30 mg/kg, po; type: ADME, organism-based; conditions: in vivo
[18] = Clearance in mouse at 1 mg/kg, iv and 30 mg/kg, po; type: ADME, organism-based; conditions: in vivo
[19] = Ratio of drug uptake in brain to plasma of C57 mouse at 30 mg/kg, po after 20 hrs by LC/MS analysis; type: ADME, organism-based; design: dose 30 mg/kg, route oral; conditions: read-out: BPR
[20] = Oral bioavailability in mouse at 30 mg/kg; type: ADME, organism-based; conditions: in vivo
Mus musculus [21] = experiment: Dose normalized AUC in mouse at 1 mg/kg, iv and 30 mg/kg, po; type: ADME, organism-based; conditions: in vivo
Mus musculus [22] = experiment: Ex-vivo inhibition of PrCP in heat inactivated 100% plasma of C57 mouse assessed as target engagement at 30 mg/kg, po after 20 hrs by FRET analysis; type: functional; design: scale not given: the % may be the effect or the level left
Mus musculus [23] = experiment: Ex-vivo inhibition of PrCP in heat inactivated 100% plasma of C57 mouse assessed as target engagement calculated as [cmpd]plasma/([cmpd]plasma + Ki (heat inactivated plasma))x100 at 30 mg/kg, po after 20 hrs by FRET analysis; type: functional; design: scale not given: the % may be the effect or the level left

Cc1cc(C2CCN(C(=O)[C@@H]3C[C@@](C)(N(C)C)C[C@H]3c3ccc(F)cc3F)CC2)n(-c2cc(Cl)ccc2Cl)n1
pKi (Mus musculus [1]): 9.05 | remaining at 0.5 h [2]: 12% | fraction unbound [3]: 0.087 | pKi (Mus musculus [4]): 8.68 | remaining at 0.5 h [5]: 33.6% | pIC50 [6]: 9.40 | fraction unbound [7]: 0.013 | pKi (Mus musculus [8]): 9.30

Cc1nc(C2CCN(C(=O)[C@@H]3C[C@@](C)(N)C[C@H]3c3ccc(F)cc3F)CC2)n(-c2cc(Cl)ccc2Cl)n1
pKi (Mus musculus [1]): 8.33 | remaining at 0.5 h [2]: 79% | fraction unbound [3]: 0.245 | pKi (Mus musculus [4]): 8.10 | remaining at 0.5 h [5]: 79% | pIC50 [6]: 8.39 | fraction unbound [7]: 0.091 | pKi (Mus musculus [8]): 8.43

Cc1cc(C2CCN(C(=O)[C@@H]3C[C@](C)(N)C[C@H]3c3ccc(F)cc3F)CC2)n(-c2ccc(F)c(Cl)c2)n1
pKi (Mus musculus [1]): 7.61 | fraction unbound [3]: 0.069 | pKi (Mus musculus [4]): 7.18 | fraction unbound [7]: 0.043 | pKi (Mus musculus [8]): 7.96

CN(C)[C@]1(C)C[C@H](C(=O)N2CCC(c3ccnn3-c3ccc(F)c(Cl)c3)CC2)[C@@H](c2ccc(F)cc2F)C1
Activity (Mus musculus [9]): >=100% | remaining at 0.5 h [2]: 1% | concentration at 20 h [10]: 305 nM | Papp at 1 µM [11]: 23.1 ×10⁻⁶ cm/s | fraction unbound [3]: 0.144 | remaining at 0.5 h [5]: 23% | Activity (Mus musculus [12]): Non-toxic | fraction unbound [7]: 0.091 | concentration at 20 h [13]: 26 nM | Kp at 20 h [14]: 0.09 | Activity (Mus musculus [15]): 38% | Activity (Mus musculus [16]): 99.6%

Cc1nc(C2CCN(C(=O)[C@@H]3C[C@@H](N(C)C)C[C@H]3c3ccc(F)cc3F)CC2)n(-c2ccc(Cl)c(C)c2)n1
fraction unbound [3]: 0.22 | pIC50 [6]: 7.39 | fraction unbound [7]: 0.32

Cc1nc(C2CCN(C(=O)[C@@H]3C[C@@](C)(N(C)C)C[C@H]3c3ccc(F)cc3F)CC2)n(-c2ccc(Cl)c(C)c2)n1
pKi (Mus musculus [1]): 8.20 | remaining at 0.5 h [2]: 27% | fraction unbound [3]: 0.05 | pKi (Mus musculus [4]): 7.78 | remaining at 0.5 h [5]: 47% | pIC50 [6]: 8.60 | fraction unbound [7]: 0.22 | pKi (Mus musculus [8]): 8.54

Cc1nc(C2CCN(C(=O)[C@@H]3C[C@@](C)(N)C[C@H]3c3ccc(F)cc3F)CC2)n(-c2ccc(F)c(Cl)c2)n1
pKi (Mus musculus [1]): 8.34 | fraction unbound [3]: 0.205 | pKi (Mus musculus [4]): 8.34 | pIC50 [6]: 7.95 | fraction unbound [7]: 0.127 | pKi (Mus musculus [8]): 8.34

Cc1nc(C2CCN(C(=O)[C@@H]3C[C@](C)(N)C[C@H]3c3ccc(F)cc3F)CC2)n(-c2ccc(F)c(Cl)c2)n1
remaining at 0.5 h [2]: 91% | remaining at 0.5 h [5]: 93% | pIC50 [6]: 7.32

Cc1nc(C2CCN(C(=O)[C@@H]3C[C@@](C)(N)C[C@H]3c3ccc(F)cc3F)CC2)n(-c2ccc(Cl)c(C)c2)n1
pKi (Mus musculus [1]): 7.57 | remaining at 0.5 h [2]: 78% | fraction unbound [3]: 0.076 | pKi (Mus musculus [4]): 7.13 | remaining at 0.5 h [5]: 72% | pIC50 [6]: 7.07 | fraction unbound [7]: 0.102 | pKi (Mus musculus [8]): 7.96

C[C@]1(N)C[C@H](C(=O)N2CCC(c3ccnn3-c3ccc(F)c(Cl)c3)CC2)[C@@H](c2ccc(F)cc2F)C1
remaining at 0.5 h [2]: 33% | fraction unbound [3]: 0.1 | remaining at 0.5 h [5]: 89% | pIC50 [6]: 8.59 | fraction unbound [7]: 0.061

Cc1cc(C2CCN(C(=O)[C@@H]3C[C@@](C)(N)C[C@H]3c3ccc(F)cc3F)CC2)n(-c2cc(Cl)ccc2Cl)n1
pKi (Mus musculus [1]): 8.68 | remaining at 0.5 h [2]: 39% | fraction unbound [3]: 0.071 | pKi (Mus musculus [4]): 8.28 | remaining at 0.5 h [5]: 78% | pIC50 [6]: 9.05 | fraction unbound [7]: 0.02 | pKi (Mus musculus [8]): 9.00

C[C@@]1(N)C[C@@H](C(=O)N2CCC(c3ncnn3-c3ccc(F)c(Cl)c3)CC2)[C@H](c2ccc(F)cc2F)C1
fraction unbound [3]: 0.21 | pIC50 [6]: 7.80 | fraction unbound [7]: 0.15

CN(C)[C@@]1(C)C[C@H](C(=O)N2CCC(c3ccnn3-c3ccc(F)c(Cl)c3)CC2)[C@@H](c2ccc(F)cc2F)C1
remaining at 0.5 h [2]: 2% | fraction unbound [3]: 0.104 | remaining at 0.5 h [5]: 34% | fraction unbound [7]: 0.132

Cc1cc(C2CCN(C(=O)[C@@H]3CN(C(C)(C)C)C[C@H]3c3ccc(F)cc3F)CC2)n(-c2cc(Cl)ccc2Cl)n1
Vd [17]: 13 L/kg | clearance [18]: 48 mL/min/kg | Kp at 20 h [19]: 1.35 | bioavailability [20]: 31% | AUC/dose (Mus musculus [21]): 0.19 µM·kg·h/mg | Activity (Mus musculus [22]): 97.7% | Activity (Mus musculus [23]): 99.8%

Cc1cc(C2CCN(C(=O)[C@@H]3C[C@@](C)(N(C)C)C[C@H]3c3ccc(F)cc3F)CC2)n(-c2ccc(F)c(Cl)c2)n1
pKi (Mus musculus [1]): 8.82 | fraction unbound [3]: 0.064 | pKi (Mus musculus [4]): 8.35 | pIC50 [6]: 9.30 | fraction unbound [7]: 0.035 | pKi (Mus musculus [8]): 9.22

Cc1nc(C2CCN(C(=O)[C@@H]3CN(C(C)(C)C)C[C@H]3c3ccc(F)cc3F)CC2)n(-c2ccc(Cl)c(C)c2)n1
Vd [17]: 17 L/kg | clearance [18]: 128 mL/min/kg | bioavailability [20]: 20% | AUC/dose (Mus musculus [21]): 0.05 µM·kg·h/mg

Cc1nc(C2CCN(C(=O)[C@@H]3C[C@@](C)(N(C)C)C[C@H]3c3ccc(F)cc3F)CC2)n(-c2cc(Cl)ccc2Cl)n1
pKi (Mus musculus [1]): 9.00 | remaining at 0.5 h [2]: 18% | fraction unbound [3]: 0.33 | pKi (Mus musculus [4]): 9.00 | remaining at 0.5 h [5]: 6% | pIC50 [6]: 8.70 | fraction unbound [7]: 0.14 | pKi (Mus musculus [8]): 9.00

Cc1nc(C2CCN(C(=O)[C@@H]3C[C@@](C)(N(C)C)C[C@H]3c3ccc(F)cc3F)CC2)n(-c2ccc(F)c(Cl)c2)n1
pKi (Mus musculus [1]): 8.96 | fraction unbound [3]: 0.32 | pKi (Mus musculus [4]): 8.96 | fraction unbound [7]: 0.22 | pKi (Mus musculus [8]): 8.96

Cc1nc(C2CCN(C(=O)[C@@H]3C[C@H](N(C)C)C[C@H]3c3ccc(F)cc3F)CC2)n(-c2ccc(Cl)c(C)c2)n1
pIC50 [6]: 7.19
